This is an account of results in patent publication US6004950A, “2-aminopyridines as inhibitors of cyclooxygenase-2” (Merck Frosst Canada, Inc., priority 1998, dated 1999).

Where two headings read alike, the source gives them in different places.

Assay [1] addresses T1, COX-2 (Homo sapiens, UniProt P35354).
T1 construct: incubation of human whole blood with LPS, which induces COX-2; endogenous in cells; host or cells: heparinized fresh whole blood of human volunteers, incubated with LPS for 24 h
T1 sequence (P35354 18-604): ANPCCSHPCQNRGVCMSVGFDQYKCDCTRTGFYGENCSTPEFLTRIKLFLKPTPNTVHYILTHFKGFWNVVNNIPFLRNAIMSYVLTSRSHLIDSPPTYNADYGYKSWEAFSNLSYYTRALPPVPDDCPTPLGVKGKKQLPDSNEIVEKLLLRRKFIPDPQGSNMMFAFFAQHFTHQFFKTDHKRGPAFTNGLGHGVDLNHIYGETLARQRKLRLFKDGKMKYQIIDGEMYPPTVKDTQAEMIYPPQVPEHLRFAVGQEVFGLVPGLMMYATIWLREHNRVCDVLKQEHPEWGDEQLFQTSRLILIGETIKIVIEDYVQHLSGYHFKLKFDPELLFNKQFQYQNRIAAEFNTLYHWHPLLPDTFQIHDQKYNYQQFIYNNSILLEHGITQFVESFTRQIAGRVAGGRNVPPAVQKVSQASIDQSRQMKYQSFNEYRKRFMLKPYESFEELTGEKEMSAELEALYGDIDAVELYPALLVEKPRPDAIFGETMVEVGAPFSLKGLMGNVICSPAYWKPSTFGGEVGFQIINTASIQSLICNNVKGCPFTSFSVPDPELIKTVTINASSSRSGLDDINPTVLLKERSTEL
The experiment in a line: Whole cell assay for COX-2 using CHO transfected cell line CHO[hCOX-2], inhibition of PGE2 synthesis. The class given is cell-based.

The target of a further assay is COX-1 (Homo sapiens, UniProt P23219). As to the kind of experiment: Assay of COX-1 activity from U937 cell microsomes. The class given is biochemical. The arrangement: Assay of COX-1 Activity from U937 cell microsomes; endogenous in cells; host or cells: U937 cells, 100,000×g microsomal pellet. As to the method:
Assay of COX-1 Activity from U937 cell microsomes
U 937 cells are pelleted by centrifugation at 500×g for 5 min and washed once with phosphate-buffered saline and repelleted. Cells are resuspended in homogenization buffer consisting of 0.1 M Tris-HCl, pH 7.4, 10 mM EDTA, 2 μg/ml leupeptin, 2 μg/ml soybean trypsin inhibitor, 2 μg/ml aprotinin and 1 mM phenyl methyl sulfonyl fluoride. The cell suspension is sonicated 4 times for 10 sec and is centrifuged at 10,000×g for 10 min at 4° C. The supernatant is centrifuged at 100,000×g for 1 hr at 4° C. The 100,000×g microsomal pellet is resuspended in 0.1 M Tris-HCl, pH 7.4, 10 mM EDTA to approximately 7 mg protein/ml and stored at -80° C.
Microsomal preparations are thawed immediately prior to use, subjected to a brief sonication, and then diluted to a protein concentration of 125 μg/ml in 0.1 M Tris-HCl buffer, pH 7.4 containing 10 mM EDTA, 0.5 mM phenol, 1 mM reduced glutathione and 1 μM hematin. Assays are performed in duplicate in a final volume of 250 μl. Initially, 5 μl of DMSO vehicle or drug in DMSO are added to 20 μl of 0.1 M Tris-HCl buffer, pH 7.4 containing 10 mM EDTA in wells of a 96-deepwell polypropylene titre plate. 200 μl of the microsomal preparation are then added and pre-incubated for 15 min at room temperature before addition of 25 μl of […] arachidonic acid in […] Tris-HCl and 10 mM EDTA, pH 7.4. Samples are incubated for 40 min at room temperature and the reaction is stopped by the addition of 25 μl of 1 N HCl. Samples are neutralized with 25 μl of 1 N NaOH prior to quantitation of PGE2 content by radioimmunoassay (Dupont-NEN or Amersham assay kits). Cyclooxygenase activity is defined as the difference between PGE2 levels in samples incubated in the presence of arachidonic acid and ethanol vehicle.
In the assay, inhibition is determined by measuring the amount of prostaglandin E2 (PGE2) synthesized in the presence of arachidonic acid, cyclooxygenase-1 or cyclooxygenase-2 and a putative inhibitor.

The target of assay [2] is T1, COX-2. The experiment in a line: Human whole blood assay, COX-2 (LPS-induced PGE2 production). The class given is cell-based. An excerpt: As well, platelets in whole blood contain a large amount of the COX-1 enzyme. Immediately following blood clotting, platelets are activated through a thrombin-mediated mechanism. This reaction results in the production of thromboxane B2 (TxB2) via activation of COX-1. Thus, the effect of test compounds on TxB2 levels following blood clotting can be examined and used as an index for COX-1 activity. Therefore, the degree of selectivity by the test compound can be determined by measuring the levels of PGE2 after LPS induction (COX-2) and TxB2 following blood clotting (COX-1) in the same assay.
A. COX-2 (LPS-induced PGE2 production)
Fresh blood is collected in heparinized tubes by venipuncture from both male and female volunteers. The subjects have no apparent inflammatory conditions and have not taken any NSAIDs for at least 7 days prior to blood collection. Plasma is immediately obtained from a 2 mL blood aliquot to use as blank (basal levels of PGE2).

Setting [3] is: U937 cell microsomes, PGE2, read-out: COX-1 (IC50 mM) U-937.
Where [4] appears, read: CHO[hCOX-2] cells, 10 μM AA, PGE2, read-out: COX-2 (IC50 mM) CHO.
[5] abbreviates: human whole blood, LPS-induced PGE2, 24 h, read-out: COX-2 (IC50 mM) HWB.

Chain of COX-1 (P23219 24-599): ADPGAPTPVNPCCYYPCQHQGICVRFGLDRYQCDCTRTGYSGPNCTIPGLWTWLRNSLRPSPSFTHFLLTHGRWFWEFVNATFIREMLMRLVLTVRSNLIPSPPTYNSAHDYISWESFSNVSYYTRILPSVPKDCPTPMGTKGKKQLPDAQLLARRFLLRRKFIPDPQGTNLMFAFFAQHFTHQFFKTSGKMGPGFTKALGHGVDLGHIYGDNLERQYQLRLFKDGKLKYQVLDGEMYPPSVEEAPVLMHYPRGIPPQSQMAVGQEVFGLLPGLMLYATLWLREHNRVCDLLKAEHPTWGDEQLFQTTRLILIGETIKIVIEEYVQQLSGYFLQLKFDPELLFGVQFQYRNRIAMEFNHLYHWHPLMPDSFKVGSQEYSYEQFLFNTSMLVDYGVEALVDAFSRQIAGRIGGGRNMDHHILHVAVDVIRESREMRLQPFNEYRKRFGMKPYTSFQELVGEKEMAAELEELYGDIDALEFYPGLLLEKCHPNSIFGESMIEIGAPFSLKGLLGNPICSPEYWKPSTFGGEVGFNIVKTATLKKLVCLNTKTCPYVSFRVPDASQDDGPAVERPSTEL

Turning to `CS(=O)(=O)c1ccc(-c2cc(C(F)(F)F)cnc2N2CCC[C@H](CO)C2)cc1` (single isomer, unassigned) [Example 14, (-)-3-(4-Methylsulfonyl)phenyl-2-(3-hydroxymethyl)piperidin-1-yl-5-trifluoromethylpyridine], the values for the IC50 at COX-2 [1], on COX-1 (setting [3]) and against COX-2 [2] were 0.03 µM, 0.003 to 0.01 mM and 0.0005 mM, respectively.
Regarding `CS(=O)(=O)c1ccc(-c2cc(C(F)(F)F)cnc2N2CCC[C@@H](CO)C2)cc1` (single isomer, unassigned) [Example 15, (+)-3-(4-Methylsulfonyl)phenyl-2-(3-hydroxymethyl)piperidin-1-yl-5-trifluoromethylpyridine], the IC50 (in general, the point on the concentration scale where inhibition reaches its midpoint) on COX-2 [1] is 0.03 µM; at COX-1 (setting [3]), over 0.01 mM; on COX-2 [2] it was 0.0266 mM.
For the compound `CS(=O)(=O)c1ccc(-c2cc(C(F)(F)F)cnc2N2CCCC2)cc1` [Example 1, 3-(4-Methylsulfonyl)phenyl-2-pyrrolidin-1-yl-5-trifluoromethylpyridine], the figures for the IC50 against COX-2 [1], at COX-1 and at COX-2 [2] were 0.02 µM, over 0.01 mM and 0.0097 mM, respectively.
Regarding `CS(=O)(=O)c1ccc(-c2cc(Cl)cnc2N2CCCCC2)cc1` [Example 3, 5-Chloro-3-(4-methylsulfonyl)phenyl-2-piperidin-1-ylpyridine], the IC50 on COX-1 (setting [3]) lay within 0.001 to 0.003 mM.
With `CS(=O)(=O)c1ccc(-c2cccnc2N2CCCCC2)cc1` [Example 4, 3-(4-Methylsulfonyl)phenyl-2-piperidin-1-ylpyridine], the IC50 on COX-2 [1] (setting [4]) was 0.13 µM; at COX-1 (setting [3]), over 0.05 mM; at COX-2 [2] (setting [5]), 0.006 mM.
Turning to `CS(=O)(=O)c1ccc(-c2cc(C(F)(F)F)cnc2N2CC=CCC2)cc1` [Example 5, 3-(4-Methylsulfonyl)phenyl-2-(1,2,3,6-tetrahydropyridinyl)-5-trifluoromethylpyridine], the IC50 at COX-2 [1] (setting [4]) was 0.002 µM; at COX-1 (setting [3]), 0.001 to 0.003 mM; at COX-2 [2] (setting [5]), 0.001 mM.
For the compound `CS(=O)(=O)c1ccc(-c2cc(C(F)(F)F)cnc2N2CCCCCC2)cc1` [Example 6, 2-(Homopiperidin-1-yl)-3-(4-methylsulfonyl)phenyl-5-trifluoromethylpyridine], the IC50 at COX-2 [1] (setting [4]) worked out at 0.004 µM; on COX-1 (setting [3]), 0.01 mM; at COX-2 [2] (setting [5]) it was 0.006 mM.
The corresponding values for `CS(=O)(=O)c1ccc(-c2cc(C(F)(F)F)cnc2N2CCC[C@H]2CO)cc1` [Example 7, 3-(4-Methylsulfonyl)phenyl-2-((2S)-2-hydroxymethyl)pyrrolidin-1-yl-5-trifluoromethylpyridine] are 0.04 µM, 0.003 to 0.01 mM and 0.0002 mM.
The corresponding values for `CS(=O)(=O)c1ccc(-c2cc(C(F)(F)F)cnc2N2CCC[C@@H]2CO)cc1` [Example 8, 3-(4-Methylsulfonyl)phenyl-2-((2R)-2-hydroxymethyl)pyrrolidin-1-yl-5-trifluoromethylpyridine] are over 5 µM, over 0.01 mM and over 0.033 mM.
For `CS(=O)(=O)c1ccc(-c2cc(Cl)cnc2N2CCC[C@H]2CO)cc1` [Example 9, 5-Chloro-3-(4-methylsulfonyl)phenyl-2-((2S)-2-hydroxymethyl)pyrrolidin-1-ylpyridine], the IC50 is 0.03 µM at COX-2 [1] (setting [4]), 0.001 to 0.003 mM at COX-1 (setting [3]) and 0.0001 mM on COX-2 [2] (setting [5]).
With `COC[C@@H]1CCCN1c1ncc(C(F)(F)F)cc1-c1ccc(S(C)(=O)=O)cc1` [Example 10, 3-(4-Methylsulfonyl)phenyl-2-((2S)-2-methoxymethyl)pyrrolidin-1-yl-5-trifluoromethylpyridine], the IC50 is 0.09 µM on COX-2 [1] (setting [4]), 0.003 to 0.01 mM on COX-1 (setting [3]) and 0.0031 mM on COX-2 [2] (setting [5]).
For `CC(=O)OC[C@@H]1CCCN1c1ncc(C(F)(F)F)cc1-c1ccc(S(C)(=O)=O)cc1` [Example 11, 3-(4-Methylsulfonyl)phenyl-2-((2S)-2-acetoxymethyl)pyrrolidin-1-yl-5-trifluoromethylpyridine], the IC50 at COX-2 [1] (setting [4]) was 0.07 µM; on COX-1 (setting [3]), over 0.01 mM; at COX-2 [2] (setting [5]), under 0.0004 mM.
`COC[C@@H]1CCCN1c1ncc(Cl)cc1-c1ccc(S(C)(=O)=O)cc1` [Example 12, 5-Chloro-3-(4-methylsulfonyl)phenyl-2-((2S)-2-methoxymethyl)pyrrolidin-1-ylpyridine]: on COX-1 (setting [3]), the IC50 is 0.003 to 0.01 mM.
Regarding `CS(=O)(=O)c1ccc(-c2cc(C(F)(F)F)cnc2N2CCCCC2CO)cc1` (stereo not drawn) [Example 13, 3-(4-Methylsulfonyl)phenyl-2-(2-hydroxymethyl)piperidin-1-yl-5-trifluoromethylpyridine], the figures for the IC50 at COX-2 [1] (setting [4]), at COX-1 (setting [3]) and at COX-2 [2] (setting [5]) were 0.1 µM, 0.01 mM and 0.0027 mM, respectively.
In the case of `CS(=O)(=O)c1ccc(-c2cc(Cl)cnc2N2CCCC(CO)C2)cc1` (stereo not drawn) [Example 16, 5-Chloro-3-(4-methylsulfonyl)phenyl-2-(3-hydroxymethyl)piperidin-1-ylpyridine], on COX-1 (setting [3]), the IC50 was over 0.01 mM.
Consider `CC1(CO)CCCN(c2ncc(C(F)(F)F)cc2-c2ccc(S(C)(=O)=O)cc2)C1` (stereo not drawn) [Example 17, 3-(4-Methylsulfonyl)phenyl-2-(3-hydroxymethyl-3-methyl)piperidin-1-yl-5-trifluoromethylpyridine], for which the IC50 on COX-2 [1] (setting [4]) was 0.4 µM; at COX-1 (setting [3]), over 0.01 mM; at COX-2 [2] (setting [5]) it was 0.0053 mM.
The corresponding values for `CS(=O)(=O)c1ccc(-c2cc(C(F)(F)F)cnc2N2CCCCC(CO)C2)cc1` (stereo not drawn) [Example 18, 3-(4-Methylsulfonyl)phenyl-2-(3-hydroxymethyl)homopiperidin-1-yl-5-trifluoromethylpyridine] are 0.08 µM, over 0.01 mM and 0.0234 mM.
As for `CS(=O)(=O)c1ccc(-c2cc(C(F)(F)F)cnc2N2CCCCC2CCO)cc1` (stereo not drawn) [Example 19, 3-(4-Methylsulfonyl)phenyl-2-(2-(2-hydroxyethyl))piperidin-1-yl-5-trifluoromethylpyridine], the IC50 is 0.92 µM at COX-2 [1] (setting [4]), over 0.01 mM on COX-1 (setting [3]) and 0.0032 mM at COX-2 [2] (setting [5]).
The corresponding values for `CS(=O)(=O)c1ccc(-c2cc(C(F)(F)F)cnc2N2CCC(=O)CC2)cc1` [Example 20, 3-(4-Methylsulfonyl)phenyl-2-(4-oxo)piperidin-1-yl-5-trifluoromethylpyridine] are 0.09 µM, over 0.01 mM and 0.0104 mM.
The corresponding values for `CS(=O)(=O)c1ccc(-c2cc(C(F)(F)F)cnc2N2CCCC(=O)C2)cc1` [Example 21, 3-(4-Methylsulfonyl)phenyl-2-(3-oxo)piperidin-1-yl-5-trifluoromethylpyridine] are 0.11 µM, over 0.01 mM and 0.0053 mM.
